The record followed here is ChEMBL document CHEMBL4033635, “Structure, synthesis and biological properties of the pentacyclic guanidinium alkaloids” (Bioorg Med Chem, 2017).

Test [1] deals with Human immunodeficiency virus 1. The test can be described thus: Antiviral activity against HIV1 LAV in human PBM cells. It is filed as functional, cell-based. Particulars: Human immunodeficiency virus 1, LAV.
Test [2] in a line: Inhibition of Ca2+-ATPase (unknown origin). Details: species or system Homo sapiens.
Test [3] is described as follows: Displacement of [125I]-alphaBgt from Torpedo californica muscle-type nAChR preincubated for 2 to 3 hrs followed by [125I]-alphaBgt addition addition measured after 5 mins. Details: species or system Tetronarce californica.
For test [4], the target named is Neuronal acetylcholine receptor subunit alpha-7 (Homo sapiens, UniProt P36544). The test can be described thus: Displacemet of [125I]-alphaBgt from human alpha7 nAChR expressed in rat GH4C1 cells preincubated for 2 to 3 hrs followed by [125I]-alphaBgt addition measured after 5 mins. It is filed as cell-based.
For test [5], the target named is Eukaryotic translation initiation factor 5A-1 (Homo sapiens) (UniProt P63241). The test can be described thus: Inhibition of eIF5A-1 (unknown origin) at 1 uM.
For test [6], the system named is K562. Nature of the test: Growth inhibition of human K562 cells. It is filed as functional.
Test [7] relates to K562. Nature of the test: Cytotoxicity against human K562 cells. It is filed as functional, cell-based.
Test [8] relates to Human immunodeficiency virus 1. The test can be described thus: Inhibition of HIV-1 reverse transcriptase at 10 uM.
For another test, the system named is HeLa. Nature of the test: Antiproliferative activity against human HeLa cells. It is filed as functional, cell-based.
Test [9] deals with Plasmodium falciparum. The test can be described thus: Antiprotozoal activity against chloroquine-sensitive Plasmodium falciparum D6 after 48 hrs by lactate dehydrogenase assay. It is filed as functional. Particulars: D6, 48 h.
Test [10] relates to Staphylococcus aureus. Nature of the test: Antibacterial activity against Staphylococcus aureus. It is filed as functional.
Test [11] concerns Plasmodium falciparum. Nature of the test: Antiprotozoal activity against chloroquine-resistant Plasmodium falciparum W2 after 48 hrs by lactate dehydrogenase assay. It is filed as functional. Particulars: W2, 48 h.
A short description of test [12]: Inhibition of pig cerebral cortex Na+/K+-ATPase. Also noted: species or system Sus scrofa.
The subject of test [13] is Staphylococcus aureus. Nature of the test: Antibacterial activity against methicilin-resistant Staphylococcus aureus. It is filed as functional.
Test [14] can be described thus: Inhibition of rabbit sercoplasmic reticulum Ca+-ATPase. Also noted: species or system Oryctolagus cuniculus.

≈ marks a conversion by molar mass, not a printed value.

Neuronal acetylcholine receptor subunit alpha-7, sequence (P36544 whole entry): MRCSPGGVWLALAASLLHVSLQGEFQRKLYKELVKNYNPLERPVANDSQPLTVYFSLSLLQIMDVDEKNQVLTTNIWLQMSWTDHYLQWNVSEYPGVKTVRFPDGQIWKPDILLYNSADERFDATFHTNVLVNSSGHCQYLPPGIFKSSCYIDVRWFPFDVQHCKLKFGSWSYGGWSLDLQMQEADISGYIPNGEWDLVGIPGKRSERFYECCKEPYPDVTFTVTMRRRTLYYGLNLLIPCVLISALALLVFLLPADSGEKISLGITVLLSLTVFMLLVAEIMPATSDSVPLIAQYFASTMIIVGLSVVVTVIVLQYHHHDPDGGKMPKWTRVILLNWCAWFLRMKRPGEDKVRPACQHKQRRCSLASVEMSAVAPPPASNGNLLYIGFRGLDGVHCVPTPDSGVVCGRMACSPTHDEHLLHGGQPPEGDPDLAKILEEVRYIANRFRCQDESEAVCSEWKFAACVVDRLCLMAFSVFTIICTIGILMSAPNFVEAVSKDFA
Eukaryotic translation initiation factor 5A-1 (Homo sapiens), sequence (P63241 whole entry): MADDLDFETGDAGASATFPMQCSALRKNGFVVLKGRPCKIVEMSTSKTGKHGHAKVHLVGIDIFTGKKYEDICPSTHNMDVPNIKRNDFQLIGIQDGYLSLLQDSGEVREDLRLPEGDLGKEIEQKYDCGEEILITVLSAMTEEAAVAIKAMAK

In the case of `CC[C@H]1C=CCC[C@@]2(C[C@@H]3CC[C@@H]4[C@H](C(=O)OCCCCCCCCCCCCCCCC(=O)N(CCCN)C[C@@H](O)CCN)[C@]5(CCC[C@@H](C)O5)NC(=N2)N34)O1`, in test [1], the EC50 stood at 0.04 µM and the EC90 is 0.12 µM.

Consider `NCCCCN(CCCN)C(=O)CCCCCCCCCCCCCCC(=O)O[C@H]1C[C@H]2C[C@@]3(CCCCO3)NC3=[N+]2[C@@H]1C[C@@]1(CCCCCO1)N3`, for which the midpoint of inhibition in test [2], the IC50, lay at 1 µM.

For `CCC[C@@H]1CCC[C@@]2(N=C3N[C@]4(CCC=C[C@H](CC)O4)C[C@@H]4CC[C@H]([C@@H]2C(=O)OCCCCCCCCCCCCCCCC(=O)N(CCCN)CCCCN)N34)O1`, the Ki in test [3] and in test [4] was 8 to 310 µM each time.

In test [5], `CC/C=C/[C@@H]1CC[C@]2(C[C@H]3CC[C@H]4[C@@H](C(=O)OC(CC)CCCCCCCCCCCCC[C@@H]5O[C@](O)(CCN)[C@H](O)N(CCCN)C5=O)[C@@]5(CCC[C@H](C)O5)NC(=[N+]34)N2)O1` (stereo partly drawn) registered an inhibition of 50%.

In test [2], `NCCCCN(CCCN)C(=O)CCCCCCCCCCCCCCC(=O)O[C@H]1C[C@H]2C[C@@]3(CCCCCO3)NC3=[N+]2[C@H]1C[C@]1(CCCCO1)N3` came in with a concentration for half-maximal inhibition (IC50) of 3 µM.

For the compound `CC[C@H]1C=CCC[C@@]2(C[C@@H]3CC[C@@H]4C(C(=O)OC/C=C/c5ccccc5)[C@]5(CCC[C@@H](C)O5)NC(=[N+]34)N2)O1` (stereo partly drawn), the concentration for 50% growth inhibition (GI50) with K562 [6] is under 1 µM.

Regarding `NCCCCN(CCCN)C(=O)CCCCCCCCCCCCCCCc1ccc2c(c1)[C@@H]1C[C@]3(CCCCO3)NC3=[N+]1[C@@H]2C[C@@]1(CCCCO1)N3.[Cl-]`, the midpoint of inhibition in the test on K562 [7], the IC50, lay at 0.52 µg/mL. Also, the inhibition in [8] was found to be 64%.

Take `CC/C=C/[C@H]1CC[C@@]2(C[C@@H]3CC[C@@H]4[C@H](C(=O)OCCCCCCCCCCCCCCCC(=O)N(CCCN)CCCCN)[C@]5(CCC[C@@H](C)O5)N=C(N2)N34)O1`: the IC50 with HeLa lay in the range of 0.58 to 2.1 µM.

On to `CC/C=C/[C@H]1CC[C@@]2(C[C@@H]3CC[C@@H]4[C@H](C(=O)OCCCCCCCCCCCCCCC(O)C(=O)NCCCN)[C@]5(CCC[C@@H](C)O5)N=C(N2)N34)O1` (stereo partly drawn), for which, in the test on HeLa, the 50% inhibitory concentration (IC50) fell in the range of 0.58 to 2.1 µM. Moreover, the Ki in [3] and in [4] was 8 to 310 µM each time.

As to `CC[C@H]1C=CCC[C@@]2(C[C@@H]3CC[C@@H]4[C@H](C(=O)OCCCCCCCCCCCCCCCC(=O)N(CCCN)CCCN)[C@]5(CCC[C@@H](C)O5)NC(=N2)N34)O1`, the IC50 in the test with Plasmodium falciparum [9] is 0.11 to 0.12 µg/mL (≈ 0.143 to 0.156 µM); with Plasmodium falciparum [11] it was 0.11 to 0.12 µg/mL (≈ 0.143 to 0.156 µM); in [12] it was 2 µM; in test [14] it was 10 µM. Further, the minimum inhibitory concentration (MIC) with Staphylococcus aureus [10] and with Staphylococcus aureus [13] was 0.63 µg/mL (≈ 0.817 µM) in each case. The EC50 in test [1] was determined as 0.011 µM. Further, the EC90 in test [1] worked out at 0.046 µM. In test [8], this compound returned an inhibition of 55 to 64%.
